# Structures can show the parent of a compound that is named as a salt.
# How the values were obtained:
# [1] = Practical applications: asthma patient cases; type: in vivo, human
# Excerpt: (§1) Practical Applications of the Present Invention
# [2] = tested on: airway epithelial glutaminase; assay: Ammonium accumulation by small airway epithelial cells (SAEC) in 3 mM glutamine; type: cell-based, human
# Experimental: (SAEC: Clonetics) grown to confluence in six well plates with 3 mM glutamine were incubated with S-Nitrosoglutathione (GSNO; 200 μm) in the presence or absence of cysteinyl glycine (CG; 100 μM). Ammonium accumulation over time was compared with control cells. S-Nitrosoglutathione require conversion to S-Nitrosocysteinyl glycine (CGSNO) (whether through simple transnitrosation reactions in the presence of CG or through cleavage by γ glutamyl transpeptidase) to be fully active at intracellular sites, such as mitochondrial glutaminase, in some system. However, conversion of GSNO to CGSNO dramatically shortens the chemical and biological half-life of the SNO moiety. […] Accumulation of NH4^+ in medium alone was at the threshold of detection.
# [3] = tested on: mycobacteria; details: human, in vivo, pH 3
# Excerpt: as §1
# [4] = existing formulations; cited from earlier work
# [5] = cited from earlier work
# [6] = tested on: glutaminase; assay: Glutaminase activity in cultured lung epithelial cells; type: cell-based; details: 100 u/ml, at 24 and 48 hours, p<0.01, n=3 each
# Excerpt: An indirect effect of HRV infection involving inflammatory and/or neuronal mediators is also possible. In particular, IFN γ is a likely candidate to mediate glutaminase inhibition because 1) Th1 cytokines inhibit glutaminase activity in lower airway epithelial cells 2) IFN γ inhibits glutaminase in other cell systems; and 3) IFN γ production following HRV infection in the setting of Th2-lymphocyte associated chronic inflammation may contribute to asthmatic airway narrowing. Applicants have shown that 100 u/ml interferon gamma inhibits glutaminase activity in cultured lung epithelial cells in excess of 65% at 24 and 48 hours (p<0.01, n=3 each). Though circulating T cells could produce IFN γ during rhinovirus infections, it seems more likely that it would be secreted in the airway itself as a result of local recruitment and activation of Th1 and/or CD8 cells.
# In accordance with one embodiment, a method of treating asthma comprises nebulizing or treating systemically with a compound that facilitates breakdown of S-Nitrosothiols, such as CuCl, Cu/Zn SOD, glutathione peroxidase, glutathione-dependent formaldehyde dehydrogenase or gamma glutamyl transpeptidase. […]
compound,measurement,setting,value
NC(=O)CC[C@H](N)C(=O)O [glutamine],asthma symptoms,[1]; 1 gm by mouth three times a day,does not develop any asthma symptoms
same,asthma exacerbation,[1]; 1 gm by nebulizer (pH 8) twice a day at onset of upper respiratory symptoms,does not develop an asthma exacerbation
"N[C@@H](CS)C(=O)NCC(=O)O [CG, cysteinyl glycine]",effect on GSNO inhibition of NH4+ accumulation after 48 hours,"[2]; cysteinyl glycine 100 μM added to GSNO 200 μm, after 48 hours",eliminated the GSNO effect
"NCC(=O)O [glycine, aminoacetic acid]",asthma symptoms,[1]; 1 mM glycine in 10 mM CAPS (pH 7.6) by nebulizer immediately before levalbuterol and budesonide,becomes asymptomatic
"N[C@@H](CCC(=O)N[C@@H](CSN=O)C(=O)NCC(=O)O)C(=O)O [GSNO, S-Nitrosoglutathione]",NH4+ accumulation at 24 hours,"[2]; GSNO 200 μm in the presence of cysteinyl glycine 100 μM, 24 hours",no NH4^+ at all accumulated
same,NH4+ accumulation over time vs control cells,"[2]; GSNO 200 μm, SAEC, p<0.01 by ANOVA",inhibited NH4^+ accumulation at each time point
CC(=O)O [acetic acid],tuberculosis symptoms,[3],symptoms resolve
CC(C)(C)NC[C@H](O)c1ccc(O)c(CO)c1 [Levalbuterol HCl],pH of existing formulation,[4],3.3-4.5
same,asthma symptoms,"[1]; levalbuterol and budesonide together, 0.5 mg by nebulizer four times/day",without relief of their symptoms
"O=C(O)CN(CCO)CCO [bicine, N,N-Bis(2-hydroxyethyl)glycine]",pKa,[5],8.46
CC(C)(C)NCC(O)c1ccc(O)c(CO)c1 (centres unmarked) [Albuterol],pH of existing formulation,[4],3 to 5
same,asthma symptoms,"[1]; 0.083 mg diluted in normal saline (pH 3.5), child",symptoms do not improve
same,asthma symptoms,"[1]; same dose diluted in 10 mM phosphate buffered saline, pH 8",symptoms resolve
interferon gamma: Th1-derived cytokine that inhibits glutaminase,inhibition of glutaminase activity,[6],> 65%
[Cl][Cu] [CuCl],asthma symptoms,"[1]; 10 μM in 10 mM phosphate buffered saline, pH 8, three times/day",asthma symptoms resolve
OC(Cn1cncn1)(Cn1cncn1)c1ccc(F)cc1F [fluconazole],asthma symptoms,"[1]; 7 day course, 200 mg/day, chronic yeast infection in mouth",asthma symptoms improve
"O=C(O)CNC(CO)(CO)CO [tricene, N-[tris(hydroxymethyl)methyl] glycine]",pKa,[5],8.26

# — US7888385B2, “Airway alkalinization as therapy for airway diseases” (priority 2002, dated 2011)
